Common to all, as to assay: inhibition of tumour cell growth, NCI panel, 48 h
Experiment [1] concerns EKVX.
Experiment [2] has as its system SK-MEL-28.
Experiment [3] has as its system SF-295.
Experiment [4] has as its system SNB-19.
The subject of experiment [5] is MDA-MB-435.
Experiment [6] concerns MOLT-4.
The test system of experiment [7] is NCI-H23.
The test system of experiment [8] is UO-31.
The subject of experiment [9] is MDA-N.
The test system of experiment [10] is SW-620.
The subject of experiment [11] is SN12C.
Experiment [12] relates to KM12.
Experiment [13] relates to CCRF-CEM.
Experiment [14] concerns SR.
The subject of experiment [15] is RXF 393.
In experiment [16] the test system is U-251.
Experiment [17] concerns SF-539.
Experiment [18] has as its system DU-145.
Experiment [19] concerns A498.

Molecules are shown by their SMILES.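 Following 48 hours of exposure in 96-well plates, responses at five concentrations were used to interpolate endpoints linearly. GI50 is the concentration that inhibits growth by half.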 Activity calls are given as the source filed them. Cut-off read from the data, not from the text of the source: active = GI50 up to about 1.1 µM and inactive = higher.

As for `CC(=O)OCC1OC(OC2CC3C(C)(C)C(=O)CC[C@]3(C)C3CC[C@]45C[C@]4(CCC5[C@@H](C)CC(O)C(O)C(C)(C)O)[C@]23C)C(O)C(O)C1O` (stereo not given in full), the GI50 was 16.3 µM (inactive) in experiment [1]; 3.24 µM (inactive) in [2]; 14.1 µM (inactive) in [3]; 11.3 µM (inactive) in [4]; 8.99 µM (inactive) in experiment [5]; 3.71 µM (inactive) in experiment [6]. The GI50 is 17.5 µM (inactive) in [7]; 18.2 µM (inactive) in experiment [8]; 10.7 µM (inactive) in experiment [9]; 13.2 µM (inactive) in experiment [10]; 13.4 µM (inactive) in experiment [11]; 6.43 µM (inactive) in experiment [12]. For the same compound, the GI50 is 4.13 µM (inactive) in experiment [13]; 4.35 µM (inactive) in experiment [14]; 10 µM (inactive) in [15]; 8.13 µM (inactive) in [16]; 15.3 µM (inactive) in [17]; 17.1 µM (inactive) in [18].
Take `CC(C)=CCC[C@@H](C)C1=C(Nc2ccccc2)C(=O)C(C)=C(O)C1=O`: the GI50 in [1] was 3.86 µM (inactive); in [2], 8.02 µM (inactive); in [3], 1.85 µM (inactive); in experiment [4], 3.77 µM (inactive); in [5], 4.72 µM (inactive); in experiment [6] it was 0.719 µM (active). Besides, the GI50 was 2.82 µM (inactive) in [7]; 3.77 µM (inactive) in experiment [8]; 4.54 µM (inactive) in [9]; 3.78 µM (inactive) in [10]; 4.19 µM (inactive) in experiment [11]; 3.42 µM (inactive) in experiment [12]. For the same compound, the GI50 was 0.239 µM (active) in [13]; 3.34 µM (inactive) in experiment [19]; 0.631 µM (active) in experiment [14]; 3.78 µM (inactive) in experiment [15]; 2.74 µM (inactive) in experiment [16]; 4.59 µM (inactive) in experiment [18].
As to `C=C[C@@H](OCOCC[Si](C)(C)C)[C@@H](CC)OC(CCCOC(=O)C(C)(C)C)OC` (stereo not given in full), the GI50 in [1] is 25.3 µM (inactive); in experiment [2], 34.5 µM (inactive); in experiment [3], 22 µM (inactive); in experiment [4] it was 16.3 µM (inactive); in experiment [5], 38.5 µM (inactive); in experiment [6] it was 91.2 µM (inactive). For the same compound, the GI50 in experiment [7] was 28.3 µM (inactive); in experiment [8], 40 µM (inactive); in [9], 45.1 µM (inactive); in experiment [10] it was 26.1 µM (inactive); in [11], 45.3 µM (inactive); in [12] it was 24 µM (inactive). In addition, the GI50 is 27.9 µM (inactive) in [13]; 43.8 µM (inactive) in experiment [19]; 41.6 µM (inactive) in experiment [14]; 21 µM (inactive) in experiment [16]; 43.7 µM (inactive) in experiment [18].
As to `COC(=O)[C@](NC(=O)OCc1ccccc1)([C@@H](C)Sc1ccc(C)cc1)C(F)(F)F`, the GI50 was 57.9 µM (inactive) in experiment [1]; 91.8 µM (inactive) in experiment [2]; 61.1 µM (inactive) in experiment [3]; > 100 µM (inactive) in experiment [4]; 49.2 µM (inactive) in [5]; 21 µM (inactive) in experiment [6]. Besides, the GI50 in experiment [7] is 19.7 µM (inactive); in experiment [8], 51.9 µM (inactive); in experiment [9], 63.5 µM (inactive); in [10] it was 27.2 µM (inactive); in experiment [12] it was 42.7 µM (inactive); in experiment [13], 13.6 µM (inactive). In addition, the GI50 in experiment [19] was > 100 µM (inactive); in [14] it was 31.1 µM (inactive); in experiment [16] it was 46.9 µM (inactive); in experiment [17] it was 69.3 µM (inactive); in experiment [18], 24.7 µM (inactive).
With `COc1ccc(/C=C2\N=C(N3CCCC(CO)C3)NC2=O)cc1` (stereo not given), the GI50 in [1], in experiment [2], in experiment [3], in experiment [4], in experiment [5] and in experiment [6] was > 100 µM (inactive) each time. Besides, the GI50 in experiment [7], in experiment [8], in [9], in [10], in experiment [11] and in experiment [12] was > 100 µM (inactive) throughout. In addition, the GI50 in experiment [13], in experiment [14], in experiment [15], in experiment [16], in experiment [17] and in experiment [18] was > 100 µM (inactive) in each case.
On to `COc1cc(C2SCC(=O)N2c2ccc(-c3ccc(-n4c(-c5ccccc5)nc5ccccc5c4=O)cc3)cc2)ccc1O` (stereo not given), for which the GI50 was > 100 µM (inactive) in experiment [1]; > 100 µM (inactive) in experiment [2]; > 100 µM (inactive) in experiment [3]; > 100 µM (inactive) in [4]; 74.1 µM (inactive) in experiment [5]; 37 µM (inactive) in experiment [6]. Further, the GI50 was > 100 µM (inactive) in experiment [7]; 24.4 µM (inactive) in [8]; 80 µM (inactive) in [9]; 82 µM (inactive) in [10]; > 100 µM (inactive) in experiment [11]; 48.2 µM (inactive) in experiment [12]. The GI50 in experiment [13] was 42.4 µM (inactive); in experiment [19], > 100 µM (inactive); in experiment [14], > 10 µM (inactive); in experiment [16] it was 44.2 µM (inactive); in experiment [17], 54.7 µM (inactive); in experiment [18] it was > 100 µM (inactive).
On to `NNC1=NC(=O)NC(=O)C1`, for which the GI50 in [1], in experiment [2], in experiment [3], in [4], in [5] and in experiment [6] was > 100 µM (inactive) throughout. Also, the GI50 in [7], in experiment [8], in experiment [9], in [10], in experiment [11] and in experiment [12] was > 100 µM (inactive) throughout. For the same compound, the GI50 in experiment [13] was 68.1 µM (inactive); in [19], > 100 µM (inactive); in experiment [14], > 100 µM (inactive); in experiment [15], > 100 µM (inactive); in experiment [16] it was > 100 µM (inactive); in [18], > 100 µM (inactive).
Take `CN(C)CCNC(=O)c1cccc2c(NC(CS)C(=O)O)c3ccccc3nc12` (stereo not given): the GI50 in experiment [1] is 11.3 µM (inactive); in experiment [2], 10.7 µM (inactive); in experiment [3] it was 5.32 µM (inactive); in experiment [4], 7.52 µM (inactive); in experiment [5], 4.49 µM (inactive); in experiment [6], 3.17 µM (inactive). Besides, the GI50 in [7] was 8.22 µM (inactive); in experiment [8] it was 3.6 µM (inactive); in experiment [9], 4.55 µM (inactive); in [10], 4.05 µM (inactive); in experiment [11], 2.6 µM (inactive); in [12] it was 8.47 µM (inactive). Also, the GI50 in experiment [13] is 6.37 µM (inactive); in experiment [19] it was > 10 µM (inactive); in experiment [14], 96.2 µM (inactive); in [16], 6.38 µM (inactive); in experiment [17], 2.41 µM (inactive); in [18] it was 10.5 µM (inactive).
Consider `CCO/C=C(\C(=O)OC)S(=O)(=O)c1ccc(C)cc1`, for which the GI50 in [1], in [2], in experiment [3], in [4], in experiment [5] and in experiment [6] was > 100 µM (inactive) in each case. The GI50 in experiment [7] was > 100 µM (inactive); in experiment [8], 61.7 µM (inactive); in [9] it was > 100 µM (inactive); in experiment [10], > 100 µM (inactive); in experiment [11] it was > 100 µM (inactive); in experiment [12], > 100 µM (inactive). For the same compound, the GI50 in [13], in experiment [14], in experiment [15], in experiment [16], in [17] and in experiment [18] was > 100 µM (inactive) throughout.
With `COc1ccc(/N=C2\C(=N/c3ccc(OC)cc3)N(S(=O)(=O)c3ccccc3)C(=S)N2c2ccccc2)cc1`, the GI50 in experiment [1], in [2], in experiment [3], in [4], in [5] and in experiment [6] was > 100 µM (inactive) in each case. The GI50 in [7], in experiment [8], in experiment [9], in experiment [10], in experiment [11] and in [12] was > 100 µM (inactive) throughout. Besides, the GI50 in experiment [14], in experiment [15], in experiment [16], in [17] and in experiment [18] was > 100 µM (inactive) each time.
With `O=C1c2cc(-c3ccccc3)cnc2S(=O)(=O)N1c1ccc(Br)cc1`, the GI50 in [1] is > 100 µM (inactive); in experiment [2], 90.8 µM (inactive); in experiment [3], 20 µM (inactive); in [4] it was 15.8 µM (inactive); in experiment [5], > 100 µM (inactive); in [6], 46.3 µM (inactive). Besides, the GI50 in [7] is 63.1 µM (inactive); in [8] it was > 100 µM (inactive); in experiment [9], > 100 µM (inactive); in [10], 81.8 µM (inactive); in experiment [11], > 100 µM (inactive); in experiment [12], 25.5 µM (inactive). The GI50 in experiment [13] was 24.9 µM (inactive); in experiment [19], > 100 µM (inactive); in experiment [14], 10.3 µM (inactive); in [16] it was 30.1 µM (inactive); in experiment [17], 30.5 µM (inactive); in [18] it was 58.3 µM (inactive).

The record behind these values is ChEMBL document CHEMBL1201862, “PubChem BioAssay data set” (2004).
